# Measured values from patent US20230085307A1, “PYRIDAZINONE COMPOUND AND HERBICIDE” (NISSAN CHEMICAL CORPORATION, priority 2019, published 2023).
# Legend:
# [1] = tested on: late watergrass; assay: Test Example 1: herbicidal activity, application before weed generation under submerged conditions (Table 16, symbol A); assay type: in vivo, late watergrass (Echinochloa oryzicola); settings: 320 g/ha applied herbicide
# Procedure, shortened: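 Submerged Wagner pots (alluvial soil, 4 cm water) sown with weed seeds and planted with 2.5-leaf rice seedlings; emulsifiable concentrate diluted in water applied to water surface on sowing day. Held in greenhouse at 25-30 °C; injury scored 0-5 by herbicidal rate after three weeks.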
# [2] = tested on: Japanese bulrush; assay: Test Example 2: herbicidal activity, application during weed generation under submerged conditions (Table 17, symbol B); assay type: in vivo, Japanese bulrush (Schoenoplectus juncoides); settings: AAH 320 g/ha; application during weed generation, submerged conditions
# Procedure, shortened: (§1)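 Steps: fill Wagner pots with alluvial soil; add water to give 4 cm depth; sow the species mixed; grow under glass at 25–30° C.; at 1–2 leaves apply water-diluted emulsion formulation to the water surface at a fixed herbicide amount; score after 3 weeks.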
# [3] = tested on: oval-leafed pondweed; assay: Test Example 2: herbicidal activity, application during weed generation under submerged conditions (Table 17, symbol C); assay type: in vivo, oval-leafed pondweed (Monochoria vaginalis); settings: AAH 320 g/ha; application during weed generation, submerged conditions
# Procedure, shortened: as §1
# [4] = tested on: rice flat sedge; assay: Test Example 3: herbicidal effect by foliage application, Wagner pot (Table 18, symbol E); assay type: in vivo, rice flat sedge (Cyperus iria); settings: for herbicidal effect on E (rice flat sedge), rating 0-5: 320 g/ha
# Procedure, shortened: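 Plants were sown in alluvial soil held under 0.1–0.5 cm standing water and grown 14 days in a greenhouse at 25–30 °C. An emulsifiable formulation, water-diluted to the set dose, was then sprayed onto the foliage, and effects were scored three weeks later using previously defined criteria.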
# [5] = tested on: southern crabgrass; assay: Test Example 4: herbicidal effect by soil treatment (Table 19, symbol F); assay type: in vivo, southern crabgrass (Digitaria ciliaris)
# Procedure, shortened: (§2)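 Emulsion of test compound, water-diluted to predetermined amount, sprayed on soil after sowing (seed depth ~1.5 cm, sterilized diluvial soil). Greenhouse, 25–30° C. Effect graded at three weeks post-spray.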
# [6] = tested on: green foxtail; assay: Test Example 4: herbicidal effect by soil treatment (Table 19, symbol G); assay type: in vivo, green foxtail (Setaria viridis)
# Procedure, shortened: as §2
# [7] = tested on: blackgrass; assay: Test Example 4: herbicidal effect by soil treatment (Table 19, symbol J); assay type: in vivo, blackgrass (Alopecurus myosuroides)
# Procedure, shortened: as §2
# [8] = tested on: Italian ryegrass; assay: Test Example 4: herbicidal effect by soil treatment (Table 19, symbol K); assay type: in vivo, Italian ryegrass (Lolium multiflorum)
# Procedure, shortened: as §2
# [9] = tested on: redroot pigweed; assay: Test Example 4: herbicidal effect by soil treatment (Table 19, symbol N); assay type: in vivo, redroot pigweed (Amaranthus retroflexus)
# Procedure, shortened: as §2
# [10] = tested on: chickweed; assay: Test Example 4: herbicidal effect by soil treatment (Table 19, symbol P); assay type: in vivo, common chickweed (Stellaria media)
# Procedure, shortened: as §2
# [11] = tested on: southern crabgrass; assay: Test Example 5: herbicidal effect by foliage application, plastic box (Table 20, symbol F); assay type: in vivo, southern crabgrass (Digitaria ciliaris); settings: foliage application
# Procedure, shortened: (§3)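 Post-emergence foliar test in sterilized diluvial soil. Compound applied as water-diluted emulsion at a predetermined rate to 14-day-old plants; evaluation at three weeks.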
# [12] = tested on: green foxtail; assay: Test Example 5: herbicidal effect by foliage application, plastic box (Table 20, symbol G); assay type: in vivo, green foxtail (Setaria viridis); settings: foliage application
# Procedure, shortened: as §3
# [13] = tested on: wild oat; assay: Test Example 5: herbicidal effect by foliage application, plastic box (Table 20, symbol I); assay type: in vivo, wild oat (Avena fatua); settings: foliage application
# Procedure, shortened: as §3
# [14] = tested on: windgrass; assay: Test Example 5: herbicidal effect by foliage application, plastic box (Table 20, symbol L); assay type: in vivo, windgrass (Apera spica-venti); settings: foliage application
# Procedure, shortened: as §3
# [15] = tested on: chickweed; assay: Test Example 5: herbicidal effect by foliage application, plastic box (Table 20, symbol P); assay type: in vivo, common chickweed (Stellaria media); settings: foliage application
# Procedure, shortened: as §3
# [16] = tested on: persian speedwell; assay: Test Example 5: herbicidal effect by foliage application, plastic box (Table 20, symbol R); assay type: in vivo, Persian speedwell (Veronica persica); settings: foliage application
# Procedure, shortened: as §3
# [17] = amount of applied herbicide 320 g/ha
# [18] = 320 g/ha, evaluated three weeks after application
# [19] = AAH 320 g/ha, three weeks after application
# [20] = 320 g/ha, three weeks after application
# [21] = AAH 320 g/ha, evaluated three weeks after application
structure (smiles),measurement,setting,value
COc1ccccc1-c1sc2ccc(Cl)cc2c1-c1c(O)c(C)nn(C)c1=O [2-101],Herbicidal effect on A: late watergrass (grade 0-5),[1],0 (Herbicidal rate of 5% or less (almost no effect))
same,"herbicidal effect rating, B: Japanese bulrush",[2],3 (Herbicidal rate of 40% or more and less than 70%)
same,"herbicidal effect rating, C: oval-leafed pondweed",[3],5 (Herbicidal rate of 90% or more (almost completely withered))
same,"herbicidal effect on E (rice flat sedge), rating 0-5",[4],5 (Herbicidal rate of 90% or more (almost completely withered))
same,"F: southern crabgrass, herbicidal effect rating",[5]; [17],3 (Herbicidal rate of 40% or more and less than 70%)
same,"G: green foxtail, herbicidal effect rating",[6]; [17],2 (Herbicidal rate of 20% or more and less than 40%)
same,"J: blackgrass, herbicidal effect rating",[7]; [17],1 (Herbicidal rate of 5% or more and less than 20%)
same,"K: Italian ryegrass, herbicidal effect rating",[8]; [17],3 (Herbicidal rate of 40% or more and less than 70%)
same,"N: redroot pigweed, herbicidal effect rating",[9]; [17],5 (Herbicidal rate of 90% or more (almost completely withered))
same,"P: chickweed, herbicidal effect rating",[10]; [17],5 (Herbicidal rate of 90% or more (almost completely withered))
same,herbicidal effect on F: southern crabgrass,[11]; [18],2 (Herbicidal rate of 20% or more and less than 40%)
same,herbicidal effect on G: green foxtail,[12]; [18],3 (Herbicidal rate of 40% or more and less than 70%)
same,herbicidal effect on I: wild oat,[13]; [18],3 (Herbicidal rate of 40% or more and less than 70%)
same,herbicidal effect on L: windgrass,[14]; [18],4 (Herbicidal rate of 70% or more and less than 90%)
same,herbicidal effect on P: chickweed,[15]; [18],5 (Herbicidal rate of 90% or more (almost completely withered))
same,herbicidal effect on R: persian speedwell,[16]; [18],5 (Herbicidal rate of 90% or more (almost completely withered))
Cc1nn(C)c(=O)c(-c2c(-c3ccc([N+](=O)[O-])cc3)sc3ccccc23)c1O [1-151],Herbicidal effect on A: late watergrass (grade 0-5),[1],3 (Herbicidal rate of 40% or more and less than 70%)
same,"herbicidal effect rating, B: Japanese bulrush",[2],2 (Herbicidal rate of 20% or more and less than 40%)
same,"herbicidal effect rating, C: oval-leafed pondweed",[3],0 (Herbicidal rate of 5% or less (almost no effect))
same,"herbicidal effect on E (rice flat sedge), rating 0-5",[4],5 (Herbicidal rate of 90% or more (almost completely withered))
same,"F: southern crabgrass, herbicidal effect rating",[5]; AAH 320 g/ha,0 (Herbicidal rate of 5% or less (almost no effect))
same,"G: green foxtail, herbicidal effect rating",[6]; AAH 320 g/ha,0 (Herbicidal rate of 5% or less (almost no effect))
same,"J: blackgrass, herbicidal effect rating",[7]; AAH 320 g/ha,0 (Herbicidal rate of 5% or less (almost no effect))
same,"K: Italian ryegrass, herbicidal effect rating",[8]; AAH 320 g/ha,3 (Herbicidal rate of 40% or more and less than 70%)
same,"N: redroot pigweed, herbicidal effect rating",[9]; AAH 320 g/ha,3 (Herbicidal rate of 40% or more and less than 70%)
same,"P: chickweed, herbicidal effect rating",[10]; AAH 320 g/ha,0 (Herbicidal rate of 5% or less (almost no effect))
same,"F: southern crabgrass, herbicidal effect",[11]; [19],4 (Herbicidal rate of 70% or more and less than 90%)
same,"G: green foxtail, herbicidal effect",[12]; [19],3 (Herbicidal rate of 40% or more and less than 70%)
same,"I: wild oat, herbicidal effect",[13]; [19],0 (Herbicidal rate of 5% or less (almost no effect))
same,"L: windgrass, herbicidal effect",[14]; [19],0 (Herbicidal rate of 5% or less (almost no effect))
same,"P: chickweed, herbicidal effect",[15]; [19],5 (Herbicidal rate of 90% or more (almost completely withered))
same,"R: persian speedwell, herbicidal effect",[16]; [19],5 (Herbicidal rate of 90% or more (almost completely withered))
CCCC(=O)Oc1c(C)nn(C)c(=O)c1-c1c(-c2ccc(OC(C)C)cc2)sc2ccccc12 [1-021],Herbicidal effect on A: late watergrass (grade 0-5),[1],4 (Herbicidal rate of 70% or more and less than 90%)
same,"herbicidal effect rating, B: Japanese bulrush",[2],3 (Herbicidal rate of 40% or more and less than 70%)
same,"herbicidal effect rating, C: oval-leafed pondweed",[3],0 (Herbicidal rate of 5% or less (almost no effect))
same,"herbicidal effect on E (rice flat sedge), rating 0-5",[4],5 (Herbicidal rate of 90% or more (almost completely withered))
same,"herbicidal effect rating, F: southern crabgrass",[5]; [17],0 (Herbicidal rate of 5% or less (almost no effect))
same,"herbicidal effect rating, G: green foxtail",[6]; [17],1 (Herbicidal rate of 5% or more and less than 20%)
same,"herbicidal effect rating, J: blackgrass",[7]; [17],0 (Herbicidal rate of 5% or less (almost no effect))
same,"herbicidal effect rating, K: Italian ryegrass",[8]; [17],1 (Herbicidal rate of 5% or more and less than 20%)
same,"herbicidal effect rating, N: redroot pigweed",[9]; [17],0 (Herbicidal rate of 5% or less (almost no effect))
same,"herbicidal effect rating, P: chickweed",[10]; [17],5 (Herbicidal rate of 90% or more (almost completely withered))
same,"herbicidal effect grade, F: southern crabgrass",[11]; [20],3 (Herbicidal rate of 40% or more and less than 70%)
same,"herbicidal effect grade, G: green foxtail",[12]; [20],4 (Herbicidal rate of 70% or more and less than 90%)
same,"herbicidal effect grade, I: wild oat",[13]; [20],0 (Herbicidal rate of 5% or less (almost no effect))
same,"herbicidal effect grade, L: windgrass",[14]; [20],0 (Herbicidal rate of 5% or less (almost no effect))
same,"herbicidal effect grade, P: chickweed",[15]; [20],5 (Herbicidal rate of 90% or more (almost completely withered))
same,"herbicidal effect grade, R: persian speedwell",[16]; [20],5 (Herbicidal rate of 90% or more (almost completely withered))
C=CCSCc1ccc(-c2sc3ccc(F)cc3c2-c2c(O)c(C)nn(C)c2=O)cc1 [2-323],Herbicidal effect on A: late watergrass (grade 0-5),[1],4 (Herbicidal rate of 70% or more and less than 90%)
same,"herbicidal effect rating, B: Japanese bulrush",[2],0 (Herbicidal rate of 5% or less (almost no effect))
same,"herbicidal effect rating, C: oval-leafed pondweed",[3],0 (Herbicidal rate of 5% or less (almost no effect))
same,herbicidal effect on E: rice flat sedge,[4]; [17],3 (Herbicidal rate of 40% or more and less than 70%)
same,herbicidal effect on F: southern crabgrass,[5]; [17],1 (Herbicidal rate of 5% or more and less than 20%)
same,herbicidal effect on G: green foxtail,[6]; [17],3 (Herbicidal rate of 40% or more and less than 70%)
same,herbicidal effect on J: blackgrass,[7]; [17],0 (Herbicidal rate of 5% or less (almost no effect))
same,herbicidal effect on K: Italian ryegrass,[8]; [17],4 (Herbicidal rate of 70% or more and less than 90%)
same,herbicidal effect on N: redroot pigweed,[9]; [17],5 (Herbicidal rate of 90% or more (almost completely withered))
same,herbicidal effect on P: chickweed,[10]; [17],1 (Herbicidal rate of 5% or more and less than 20%)
same,"F: southern crabgrass, herbicidal effect (criteria 0-5)",[11]; [21],5 (Herbicidal rate of 90% or more (almost completely withered))
same,"G: green foxtail, herbicidal effect (criteria 0-5)",[12]; [21],5 (Herbicidal rate of 90% or more (almost completely withered))
same,"I: wild oat, herbicidal effect (criteria 0-5)",[13]; [21],3 (Herbicidal rate of 40% or more and less than 70%)
same,"L: windgrass, herbicidal effect (criteria 0-5)",[14]; [21],5 (Herbicidal rate of 90% or more (almost completely withered))
same,"P: chickweed, herbicidal effect (criteria 0-5)",[15]; [21],5 (Herbicidal rate of 90% or more (almost completely withered))
same,"R: persian speedwell, herbicidal effect (criteria 0-5)",[16]; [21],5 (Herbicidal rate of 90% or more (almost completely withered))
COCCOc1ccc(-c2sc3ccc(F)cc3c2-c2c(O)c(C)nn(C)c2=O)cc1 [2-056],Herbicidal effect on A: late watergrass (grade 0-5),[1],3 (Herbicidal rate of 40% or more and less than 70%)
same,"herbicidal effect rating, B: Japanese bulrush",[2],3 (Herbicidal rate of 40% or more and less than 70%)
same,"herbicidal effect rating, C: oval-leafed pondweed",[3],3 (Herbicidal rate of 40% or more and less than 70%)
same,"herbicidal effect on E (rice flat sedge), rating 0-5",[4],5 (Herbicidal rate of 90% or more (almost completely withered))
same,"herbicidal effect rating, F: southern crabgrass",[5]; 320 g/ha,5 (Herbicidal rate of 90% or more (almost completely withered))
same,"herbicidal effect rating, G: green foxtail",[6]; 320 g/ha,5 (Herbicidal rate of 90% or more (almost completely withered))
same,"herbicidal effect rating, J: blackgrass",[7]; 320 g/ha,0 (Herbicidal rate of 5% or less (almost no effect))
same,"herbicidal effect rating, K: Italian ryegrass",[8]; 320 g/ha,0 (Herbicidal rate of 5% or less (almost no effect))
same,"herbicidal effect rating, N: redroot pigweed",[9]; 320 g/ha,5 (Herbicidal rate of 90% or more (almost completely withered))
same,"herbicidal effect rating, P: chickweed",[10]; 320 g/ha,5 (Herbicidal rate of 90% or more (almost completely withered))
same,herbicidal effect on F: southern crabgrass,[11]; [18],5 (Herbicidal rate of 90% or more (almost completely withered))
same,herbicidal effect on G: green foxtail,[12]; [18],5 (Herbicidal rate of 90% or more (almost completely withered))
same,herbicidal effect on I: wild oat,[13]; [18],4 (Herbicidal rate of 70% or more and less than 90%)
same,herbicidal effect on L: windgrass,[14]; [18],4 (Herbicidal rate of 70% or more and less than 90%)
same,herbicidal effect on P: chickweed,[15]; [18],5 (Herbicidal rate of 90% or more (almost completely withered))
same,herbicidal effect on R: persian speedwell,[16]; [18],5 (Herbicidal rate of 90% or more (almost completely withered))
